Test results reported in patent publication US20130022644A1, “NOVEL N-PHENYLACETAMIDE DERIVATIVES, WHICH INHIBIT THE ENZYME SOAT-1, AND PHARMACEUTICAL AND COSMETIC COMPOSITIONS CONTAINING THEM” (GALDERMA RESEACH & DEVELOPMENT, priority 2009, published 2013).

Assays:
enzyme ACAT-1 = molecular target: T1, enzyme ACAT-1 (Homo sapiens, UniProt P35610); assay: HepG2 NBD-cholesterol fluorescence test for inhibitory activity towards the enzyme ACAT-1 (SOAT-1); format: cell-based; details: HepG2 cells, NBD-cholesterol 1 μg/ml, incubation 6 hours at 37° C., fluorescence ex 490 nm / em 540 nm
T1 construct: endogenous in cells; host or cells: HepG2
T1 sequence (P35610 1-550): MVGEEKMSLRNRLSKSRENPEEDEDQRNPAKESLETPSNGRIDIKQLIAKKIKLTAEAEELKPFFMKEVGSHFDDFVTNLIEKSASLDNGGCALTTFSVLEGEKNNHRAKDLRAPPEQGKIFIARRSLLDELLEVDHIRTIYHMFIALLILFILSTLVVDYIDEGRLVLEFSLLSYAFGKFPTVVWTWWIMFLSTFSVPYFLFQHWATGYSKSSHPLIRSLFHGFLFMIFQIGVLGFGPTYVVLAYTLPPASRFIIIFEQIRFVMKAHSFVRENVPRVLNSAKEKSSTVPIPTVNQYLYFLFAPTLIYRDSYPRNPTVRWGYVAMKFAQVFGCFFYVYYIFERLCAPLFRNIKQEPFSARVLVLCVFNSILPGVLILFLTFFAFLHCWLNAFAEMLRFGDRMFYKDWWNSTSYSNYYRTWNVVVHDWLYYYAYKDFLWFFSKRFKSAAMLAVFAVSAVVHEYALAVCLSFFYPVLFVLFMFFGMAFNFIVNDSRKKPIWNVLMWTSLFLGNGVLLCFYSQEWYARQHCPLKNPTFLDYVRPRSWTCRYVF
Procedure: The compounds (1) according to the invention, and also the pharmaceutically acceptable salts, solvates and/or hydrates thereof, have inhibitory properties on the enzyme SOAT-1. This inhibitory activity on the enzyme SOAT-1 is measured according to a HepG2 primary enzymatic test, as described in Example 3.
The compounds of formula (I) according to the invention were subjected to a test for evaluating their inhibitory activity towards the enzyme ACAT-1, inspired by the following publication: “Identification of ACAT1- and ACAT2-specific inhibitors using a novel, cell based fluorescence assay: individual ACAT uniqueness”, J. Lipid. Res. (2004) vol. 45, pages 378-386.
The principle of this test is based on the use of NBD-cholesterol, a cholesterol analogue whose fluorescence depends on its environment. When this molecule is in a polar environment, it is weakly fluorescent, whereas in a non-polar environment, it is strongly fluorescent. […]
The method below is applied: HepG2 cells are incubated in the presence of NBD-cholesterol (1 μg/ml) and of the test compound of formula (I) in black transparent-bottomed 96-well plates, at a rate of 30 000 cells per well. […] After addition of 50 μl of lysis buffer (10 mM NaPO4, 1% Igepal), the plates are shaken for 5 minutes and the fluorescence is read (excitation at 490 nm, emission at 540 nm) on a Fusion machine (Perkin-Elmer). […]

CCCC1(C)C(=O)N(CC(=O)Nc2c(C(C)C)cccc2C(C)C)C(=O)N1c1ccc(C)cc1 (centres unmarked) [Compound 1, N-(2,6-Diisopropylphenyl)-2-(4-methyl-2,5-dioxo-4-propyl-3-p-tolylimidazolidin-1-yl)acetamide]
IC50 (enzyme ACAT-1): 9 nM | melting point: 186 °C
